# From US9980490B1, “Method of disinfecting bacterial contaminated surfaces or removing bacteria from contaminated surfaces” (priority 2014, dated 2018)
# Where two headings read alike, the source gives them in different places.
# Legend:
# [1] = system: human skin; conditions: 12% solution, 48 hr. closed patch test; cited from earlier work
# [2] = system: mice; conditions: oral, Federal Register; cited from earlier work
# [3] = system: rats; conditions: cited from earlier work; for LD50: oral, Federal Register
# [4] = system: rats; conditions: cited from earlier work
# [5] = system: Candida albicans; conditions: even numbered C8 to C18 fatty acids screened; cited from earlier work
# [6] = system: Staphlycoccus aureous; conditions: even numbered C8 to C18 fatty acids screened; cited from earlier work
# [7] = system: Streptococcus Group A; conditions: even numbered C8 to C18 fatty acids screened; cited from earlier work
# [8] = Highest aqueous concentration before salt precipitates; format: physicochemical; conditions: room temperature; above this insoluble salt precipitates
# Description: The final salt (soap) product, ammonium nonanoate, is made by neutralization by mixing the oleic-derived nonanoic acid with an equal molar amount of ammonia dissolved in water until a clear one-phase solution with a pH range of 7.5 to 8.5 occurs. At this point all of the acid is converted to ammonium salt: none remains in the product. […] The final concentration of ammonium nonanoate depends on the amount of water used. The highest concentration that can be made is approximately 40% since above this concentration at room temperature, insoluble salt precipitates as a solid.
# [9] = system: mammals and birds; conditions: EPA Biochemical Division registration as bioherbicide; cited from earlier work
# [10] = according to the EPA; cited from earlier work
# [11] = system: Staphylococcus aureous; test: Suspension time-kill test of aqueous ammonium nonanoate; format: cell-based; conditions: 2% aqueous solution, 2 minutes
# Method: (§1) There were no other ingredients in these solutions except the ammonium salts and water. […] Suspensions of test bacteria were exposed to the 1% and 2% ammonium nonanoate solutions for specified exposure times at ambient temperature. After exposure, aliquots of the suspensions were transferred to neutralizer and assayed for survivors. Appropriate culture purity, neutralizer sterility, test population, and neutralization confirmation controls were performed. […] This is a reduction of live bacteria of >99.999%.
# [12] = system: pseudomonas aeruginosa (gram negative); test: as above; format: cell-based; conditions: 2% aqueous solution, 1 minute
# Method: as §1
# [13] = system: Escherichia coli (gram negative); test: Suspension time-kill test of aqueous ammonium nonanoate, survivors assayed after neutralization; format: cell-based; conditions: 1% aqueous solution, 1 minute exposure, ambient temperature
# Method: as §1
# [14] = system: Enterococcus faecalis (gram positive); test: as above; format: cell-based; conditions: 1% aqueous solution, 1 minute exposure, ambient temperature
# Method: as §1
compound,measurement,setting,value
CCCCCCCCC(=O)O [nonanoic acid],irritation on human skin,[1],no irritation
same,LD50,[2],"5,000 mg/kg"
same,oral LD50,[3]; male rats,"> 9,000 mg/kg"
same,LD50,"[3]; rats, indicated by no death at 3,200 mg/kg","over 3,200 mg/kg"
same,LD50,[3]; rats,"5,000 mg/kg"
same,oral LD50,"[3]; rats, Patty's Industrial Hygiene and Toxicology",15 g/kg
same,death of rats,"[3]; undiluted, oral, 3,200 mg/kg body weight, Federal Register Vol. 69 No. 52 p. 12672",did not cause death of any of the rats
same,mortality,[4]; 0.46 mg/liter as an aerosol for four hours,no mortality
same,symptoms of toxicity,"[4]; atmospheric concentration (125 ppm), 6 hours",no symptoms of toxicity
CCCCCCCCCC(=O)O [capric acid],antimicrobial activity relative to other fatty acids tested,[5],highest activity
same,antimicrobial activity relative to other fatty acids tested,[6],highest activity
same,antimicrobial activity relative to other fatty acids tested,[7],highest activity
CCCCCCCCC(=O)O.N [ammonium nonanoate],highest concentration that can be made in water,[8],approximately 40%
same,toxicity to mammals and birds,[9],non-toxic
same,time to biodegradation after formation,[10],≤ 24 h
same,reduction in population,[11],> 99.999%
same,reduction in population,[12],> 99.999%
same,log reduction in the population,[13],5 log
same,reduction of live bacteria,[13],> 99.999%
same,log reduction in the population,[14],5 log
same,reduction of live bacteria,[14],> 99.999%
